Reference: patent publication US20220023381A1, “VDAC INHIBITORS FOR TREATING AUTOIMMUNE DISEASES” (NATIONAL INSTITUTE FOR BIOTECHNOLOGY IN THE NEGEV LTD., priority 2018, published 2022)

Legend:
VDAC1 [1] = biological target: T1, VDAC1 (Rattus norvegicus, UniProt Q9Z2L0); test: mtDNA efflux from liposomes reconstituted with VDAC1; format: biochemical; details: VDAC1-containing mtDNA-loaded liposomes
T1 construct: from tissue; host or cells: rat liver mitochondria (inferred)

VDAC1 [2] = biological target: T1, VDAC1; test: Micro-scale thermophoresis (MST) interaction with VDAC1; format: binding; details: without prior exposure to high voltage
[3] = tested on: low-density granulocytes (LDG) and normal-density granulocytes (NDG); test: NET formation (NETosis) in granulocytes; format: cell-based, human
Method: Normal-density granulocytes (NDGs) were isolated from heparinized venous blood using a Ficoll-Paque gradient (GE Healthcare) with dextran (Sigma-Aldrich) sedimentation, followed by red blood cell lysis using hypotonic NaCl. From the PBMC layer, low-density granulocytes (LDGs) were isolated using a negative selection method. The cells were resuspended in RPMI 1640 medium for further characterization. NETs were induced in NDGs by incubating cells with calcium ionophore A23187 (25 μM) (Thermo Fisher) in RPMI 1640 medium for 2 h, and NETs were quantified using SYTOX fluorescent dye at 485/520 nm to quantify extracellular DNA. The fluorescence of PicoGreen (Life Technologies) at t=0 min was measured at 485/520 nm […] to quantify the total DNA. The fluorescence was quantified using a microplate reader (Synergy HTX; BIOTEK). NETs were also quantified by fluorescence microscopy. Briefly, the cells were attached to coverslip chambers, stimulated for 90 min at 37° C. with calcium ionophore, fixed with 4% paraformaldehyde overnight at 4° C., and permeabilized with 0.2% Triton X-100 for 10 min, followed by 0.5% gelatin for 20 min. The cells were stained with antibodies against human neutrophil elastase (ab21595, Abcam) for 2 h at room temperature, washed in PBS, and stained with Hoechst 33342 (Life Technologies) and Alexa Fluor 488 secondary antibody (A31570, Life Technologies) for 2 h at room temperature. After mounting, the cells were visualized with a LSM780 confocal microscope.

EndoG−/− MEFs = test: Quantification of cytosolic mtDNA (cmtDNA) in EndoG−/− MEFs; format: cell-based, mouse; details: VBIT-4 (10 μM), real-time PCR
Method: MEFs were resuspended in 170 μl digitonin buffer containing 150 mM NaCl, 50 mM HEPES pH 7.4, and 25 μg/ml digitonin (EMD Millipore Corp). The homogenates were incubated on a rotator for 10 min at room temperature, followed by centrifugation at 16,000 g for 25 min at 4° C. A 1:20 dilution of the supernatant (cmtDNA) was used for real-time RT-PCR. The pellet was resuspended in 340 μl lysis buffer containing 5 mM EDTA and proteinase K (Qiagen) and incubated at 55° C. overnight. The digested pellet was diluted with water (1:20 to 1:100) and heated at 95° C. for 20 min to inactivate proteinase K, and the sample was used for real-time PCR. The primers used were as follow (5′-3′): D-loop1 forward (SEQ ID NO:64), and reverse (SEQ ID NO:65); D-loop2 forward (SEQ ID NO:66), and reverse (SEQ ID NO:67); D-loop3 forward (SEQ ID NO:68), and reverse (SEQ ID NO:69). The cmtDNA in the supernatant was normalized to the total mitochondrial DNA in the pellet for each sample.

MRL/lpr mice = test: MRL/lpr lupus-prone mouse model; format: in vivo
Method: All experiments were approved by the ACUC (Animal Care and Use Committee) of the NIH/NHLBI. Lupus-prone female MRL/MpJ-Fas^lpr/J mice (stock #000485, n=10 in each group), used as a model to determine the etiology of systemic lupus erythematosus (SLE), were purchased from The Jackson Laboratory. VIBIT4 was freshly dissolved in DMSO and diluted in water (final pH 5.0). The mice were treated with a daily dose of VBIT-4 (20 mg/kg) or vehicle in drinking water for 5 weeks, beginning at 11 weeks of age until euthanasia at 16 weeks of age. Blood and urine samples were collected when the mice were 16 weeks of age. The body weight of the mice was measured before and after VBIT-4 administration (at 11 and 16 weeks of age).
Proteinuria in fresh urine was measured using creatinine and albumin ELISA kits (Exocell), and mouse albumin was used to determine the proteinuria:creatinine ratio following the manufacturer's instructions.
Circulating mtDNA was isolated from 500 μl of serum using QIAamp Circulating Nucleic Acid Kit (Qiagen) according to the manufacturer's protocol. Briefly, serum samples were incubated with proteinase K and carrier RNA at 55° C. for 30 min in lysis buffer, and the circulating nucleic acids were bound to the silica membrane by applying vacuum pressure. After washing, the eluted samples were used for real-time RT-PCR. Primers of the mtDNA D-loop3 regions were used to quantify serum mtDNA. Anti-dsDNA antibodies were detected at 1:200 serum dilution using an ELISA kit (Alpha Diagnostic).
Kidneys were harvested after perfusion with PBS from MRL/lpr mice. Frozen kidney sections were fixed in cold acetone for 20 min, washed, and blocked for 18 h at 4° C. with 4% BSA in PBS. To detect glomerular deposits, the sections were stained with FITC-conjugated anti-mouse C3 antibody (GC3-90E-Z, Immunology Consultants Laboratory) and Alexa Fluor 594-conjugated anti-Mouse IgG antibody (A-11020, Invitrogen) with Hoechst staining at 1:100 dilution (Life Technologies) for 1 h at room temperature. After washing with PBS, the tissues were mounted, and the slides were observed using a LSM880 laser confocal microscope. The fluorescence intensity score was determined after analyzing random images for each animal in a blinded manner.

rat liver mitochondria = test: Ca2+ accumulation by isolated mitochondria; details: purified mitochondria
Method: The PTP opening was analyzed following mitochondria swelling. Briefly, freshly isolated mitochondria (0.5 mg/ml) were incubated for 2 min at 24° C. with the indicated concentrations of VBIT-4 for Ca^2+-induced mitochondrial swelling assay. Swelling was initiated by the addition of Ca^2+ (0.1 mM) to the sample cuvette. Absorbance changes at 520 nm were monitored every 16 s for 15 min. Cyclosporine A 10 μM) was used as a positive control. […] Ca^2+ accumulation by freshly isolated rat liver mitochondria (0.5 mg/ml) was assayed with the indicated concentrations of VBIT-4 in the presence of […] CaCl2) (containing [^45Ca^2+]), 220 mM mannitol, 70 mM sucrose, 5 mM succinate, 0.15 mM Pi and 15 mM Tris/HCl, pH 7.2. Ca^2+ uptake was terminated by rapid Millipore filtration (0.45 μm).

[4] = VBIT-4 20 mg/kg daily in drinking water, 5 weeks

T1 sequence (Q9Z2L0 whole entry): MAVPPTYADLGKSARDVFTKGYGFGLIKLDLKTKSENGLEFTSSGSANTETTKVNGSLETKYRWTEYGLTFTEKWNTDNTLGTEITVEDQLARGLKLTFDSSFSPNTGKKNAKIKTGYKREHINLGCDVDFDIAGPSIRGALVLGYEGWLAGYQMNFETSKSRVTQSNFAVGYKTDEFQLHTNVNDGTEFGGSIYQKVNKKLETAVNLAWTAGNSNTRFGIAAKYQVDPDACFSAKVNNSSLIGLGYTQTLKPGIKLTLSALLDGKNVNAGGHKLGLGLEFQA

## O=C(CC(CO)N1CCN(c2ccc(OC(F)(F)F)cc2)CC1)Nc1ccc(Cl)cc1 (stereo not shown) [VBIT-4, N-(4-chlorophenyl)-4-hydroxy-3-(4-(4-(trifluoromethoxy)phenyl)-piperazin-1-yl)butanamide]
VDAC1 [1]
  mtDNA release from liposomes: decreased
VDAC1 [2]
  interaction with VDAC1 measured by MST: did show interaction
[3]; LDG from lupus patients, spontaneous NET formation, VBIT-4 (5 μM), microscopy
  NETosis: strongly inhibited
[3]; NDG from healthy controls, SYTOX-PicoGreen plate assay
  NETosis: strongly inhibited
[3]; NDG from lupus patients, A23187-stimulated, microscopy
  NETosis: strongly inhibited
[3]; NDG from lupus patients, SYTOX-PicoGreen plate assay
  NETosis: strongly inhibited
EndoG−/− MEFs
  cmtDNA: decreased
MRL/lpr mice; 20 mg/kg daily, 5 weeks, at 16 weeks of age
  weight of spleen and lymph node: reduced
MRL/lpr mice; C3 and IgG in kidney glomeruli, compared with vehicle-treated mice
  renal immune complex deposition: significantly diminished
MRL/lpr mice; [4]
  alopecia of face and dorsal: suppressed
  development of skin lesions: blocked
  mortality: did not cause any mortality
  thickening of the epidermis that accompanies leukocyte infiltration: blocked
MRL/lpr mice; VBIT-4 20 mg/kg daily in drinking water, 5 weeks, 11 and 16 weeks of age
  change in body weight: did not cause any mortality or change in body weight
MRL/lpr mice; albumin:creatinine ratio, compared with vehicle-treated mice
  proteinuria: significantly diminished
MRL/lpr mice; compared with vehicle-treated mice
  serum anti-dsDNA: significantly diminished
MRL/lpr mice; serum, compared with vehicle-treated mice
  cell-free mtDNA: significantly diminished
MRL/lpr mice; spleen, real-time PCR, compared with vehicle-treated mice
  ISG induction: significantly diminished
Rat liver mitochondria
  Ca2+ uptake: did not prevent
